Results from ChEMBL document CHEMBL4811301, “Synthesis and biological evaluation of 3-styrylchromone derivatives as selective monoamine oxidase B inhibitors” (Bioorg Med Chem, 2021).

Legend:
[1] = molecular target: T1, Amine oxidase [flavin-containing] A (Homo sapiens, UniProt P21397); test: Inhibition of human recombinant MAO-A […] as incubated for 20 mins measuring increase in emission signal at 310 nm multimode plate reader assay
T1 sequence (P21397 whole entry): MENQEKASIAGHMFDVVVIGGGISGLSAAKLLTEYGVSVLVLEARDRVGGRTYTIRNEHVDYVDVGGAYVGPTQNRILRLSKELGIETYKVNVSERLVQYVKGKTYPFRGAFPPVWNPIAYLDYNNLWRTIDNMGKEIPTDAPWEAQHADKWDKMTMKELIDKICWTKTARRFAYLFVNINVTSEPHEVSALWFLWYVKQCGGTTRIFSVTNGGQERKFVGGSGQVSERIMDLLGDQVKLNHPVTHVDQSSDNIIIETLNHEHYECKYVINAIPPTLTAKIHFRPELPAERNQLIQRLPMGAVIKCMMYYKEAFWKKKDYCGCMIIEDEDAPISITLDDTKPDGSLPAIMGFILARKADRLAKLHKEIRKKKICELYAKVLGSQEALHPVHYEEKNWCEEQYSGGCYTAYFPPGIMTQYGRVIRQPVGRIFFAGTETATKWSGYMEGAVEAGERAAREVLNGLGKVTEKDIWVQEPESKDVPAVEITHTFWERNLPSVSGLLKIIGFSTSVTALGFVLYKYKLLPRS

[2] = molecular target: T2, Amine oxidase [flavin-containing] B (Homo sapiens, UniProt P27338); test: Inhibition of human recombinant MAO-B using kynuramine as substrate incubated for 20 mins measuring increase in emission signal at 400 nm multimode plate reader assay
T2 sequence (P27338 whole entry): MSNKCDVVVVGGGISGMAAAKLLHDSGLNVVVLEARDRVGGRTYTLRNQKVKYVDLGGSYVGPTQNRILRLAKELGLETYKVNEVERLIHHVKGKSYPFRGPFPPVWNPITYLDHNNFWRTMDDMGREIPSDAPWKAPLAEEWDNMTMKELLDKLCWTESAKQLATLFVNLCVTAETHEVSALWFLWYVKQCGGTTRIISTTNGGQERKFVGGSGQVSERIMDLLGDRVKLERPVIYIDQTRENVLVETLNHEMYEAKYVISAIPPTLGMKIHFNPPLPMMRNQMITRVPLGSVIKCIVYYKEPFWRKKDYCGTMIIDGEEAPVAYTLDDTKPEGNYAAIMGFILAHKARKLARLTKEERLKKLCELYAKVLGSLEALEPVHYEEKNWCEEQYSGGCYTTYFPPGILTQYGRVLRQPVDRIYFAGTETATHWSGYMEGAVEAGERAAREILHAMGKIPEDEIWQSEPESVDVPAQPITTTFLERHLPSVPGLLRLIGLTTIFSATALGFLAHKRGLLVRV

Homo sapiens = species on record: Homo sapiens; test: Selectivity index, ratio of IC50 for recombinant human MAO-A to IC50 for recombinant human MAO-B
[3] = molecular target: T2, Amine oxidase [flavin-containing] B; test: Mixed type inhibition of human recombinant MAO-B by Lineweaver-Burk plot analysis

SMILES | IC50 [1] [µM] | IC50 [2] [nM] | Selectivity Index (Homo sapiens) | Ki [3] [nM]
COc1ccc2c(=O)c(/C=C/c3ccc(O)cc3)coc2c1 | 0.022 | 47 | – | –
COc1ccc2occ(/C=C/c3ccc(OC)c(OC)c3)c(=O)c2c1 | 61 | 800 | 76 | –
COc1ccc2c(=O)c(/C=C/c3ccc(OC)c(OC)c3)coc2c1 | 19 | 33 | 576 | –
COc1ccc2occ(/C=C/c3ccc(O)cc3)c(=O)c2c1 | 8.7 | 330 | – | –
COc1ccc2occ(/C=C/c3ccc(F)cc3)c(=O)c2c1 | 0.38 | 34 | 11 | –
COc1ccc2c(=O)c(/C=C/c3ccc(Cl)cc3)coc2c1 | 0.025 | 2.2 | 11 | 1.5
COc1ccc2c(=O)c(/C=C/c3ccccc3)coc2c1 | 0.12 | 16 | 8 | –
COc1ccc(/C=C/c2coc3cc(OC)ccc3c2=O)cc1 | 0.069 | 6.8 | 10 | –
COc1ccc(/C=C/c2coc3ccccc3c2=O)cc1 | > 100 | 29 | > 3400 | –
CN(C)c1ccc(/C=C/c2coc3ccccc3c2=O)cc1 | 42 | 48 | 875 | –

Further lines, results first:

IC50 [1] [µM] | IC50 [2] [nM] | Selectivity Index (Homo sapiens) | Ki [3] [nM] | SMILES
0.014 | 3.1 | – | – | COc1ccc2c(=O)c(/C=C/c3ccc(F)cc3)coc2c1
67 | 230 | 291 | – | COc1cc(/C=C/c2coc3ccccc3c2=O)cc(OC)c1OC
7.3 | 21 | 348 | – | COc1ccc2c(=O)c(/C=C/c3cc(OC)c(OC)c(OC)c3)coc2c1
4.1 | 28 | 146 | – | COc1ccc2occ(/C=C/c3ccc(Cl)cc3)c(=O)c2c1
> 100 | 2500 | > 40 | – | COc1ccc2occ(/C=C/c3cc(OC)c(OC)c(OC)c3)c(=O)c2c1
2.5 | 75 | 33 | – | COc1ccc2occ(/C=C/c3ccccc3)c(=O)c2c1
59 | 230 | 257 | – | COc1ccc2occ(/C=C/c3ccc(N(C)C)cc3)c(=O)c2c1
0.49 | 6.1 | 80 | – | COc1ccc2c(=O)c(/C=C/c3ccc(N(C)C)cc3)coc2c1
0.62 | 8.6 | 72 | – | O=c1c(/C=C/c2ccc(F)cc2)coc2ccccc12
0.39 | 5.9 | 66 | – | O=c1c(/C=C/c2ccc(Cl)cc2)coc2ccccc12
33 | 160 | 206 | – | COc1ccc(/C=C/c2coc3ccccc3c2=O)cc1OC
> 100 | 27 | > 3700 | 18 | O=c1c(/C=C/c2ccccc2)coc2ccccc12
35 | 150 | 233 | – | COc1ccc(/C=C/c2coc3ccc(OC)cc3c2=O)cc1
2.6 | 37 | 70 | – | O=c1c(/C=C/c2ccc(O)cc2)coc2ccccc12
